Where two headings read alike, the source gives them in different places.
Biological target: hT2R8 (Homo sapiens (Human), UniProt Q9NYW2)
Assay: hT2R8 antagonist high-throughput FLIPR assay, stable cell line with G16g44, agonist andrographolide
Assay type: cell-based
In short: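 Antagonist screen: compounds co-applied with agonist andrographolide at 200 μM, a dose giving 70–80% of maximal hT2R8 activation. Fluorescence measured by FLIPR in a stable HEK293 line expressing both hT2R8 and the promiscuous G16g44 protein.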

[1] = read-out: IC50 on hT2R8 bitter receptor
[2] = table after Example 10-97, read-out: hT2R8 IC50
[3] = unit uM, read-out: IC50 on hT2R08 bitter receptor
[4] = table after Example 12-37, read-out: hT2R8 IC50

hT2R8, sequence (Q9NYW2 whole entry): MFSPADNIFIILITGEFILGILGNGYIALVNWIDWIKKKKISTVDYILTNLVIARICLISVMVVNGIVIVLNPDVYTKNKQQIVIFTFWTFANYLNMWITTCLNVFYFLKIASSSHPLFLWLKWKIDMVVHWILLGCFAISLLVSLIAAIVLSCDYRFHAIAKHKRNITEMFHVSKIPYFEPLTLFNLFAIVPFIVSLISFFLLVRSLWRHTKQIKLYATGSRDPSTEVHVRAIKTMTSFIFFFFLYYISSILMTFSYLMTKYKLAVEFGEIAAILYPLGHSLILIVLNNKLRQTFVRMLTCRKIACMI

| IC50 [1] | IC50 [2] | SMILES | also measured |
| --- | --- | --- | --- |
| 0.13 µM | 0.131 µM | COc1cccc(CC2NC(=O)N(c3cnn(Cc4c(C)noc4C)c3)C2=O)c1 (stereo not shown) [Example 10-56, 3-(1-((3,5-dimethylisoxazol-4-yl)methyl)-1H-pyrazol-4-yl)-5-(3-methoxybenzyl)imidazolidine-2,4-dione] |  |
|  | 0.412 µM | Cc1noc(C)c1Cn1cc(N2C(=O)CN(Cc3ccccc3[S+](C)[O-])C2=O)cn1 (stereo not shown) [Example 10-17, 33-(1-((3,5-dimethylisoxazol-4-yl)methyl)-1H-pyrazol-4-yl)-1-(2-(methylsulfinyl)benzyl)imidazolidine-2,4-dione] | IC50 [3]: 0.4 µM |
|  | 0.09 µM | Cc1noc(C)c1Cn1cc(N2C(=O)CN(Cc3ccccc3F)C2=O)cn1 [Example 10-21, 3-(1-((3,5-dimethylisoxazol-4-yl)methyl)-1H-pyrazol-4-yl)-1-(2-fluorobenzyl)imidazolidine-2,4-dione] | IC50 [3]: 0.08 µM |
| 0.58 µM | 0.966 µM | Cc1noc(C)c1Cn1cc(N2C(=O)CN(C)C2=O)cn1 [Example 10-51, 3-(1-((3,5-dimethylisoxazol-4-yl)methyl)-1H-pyrazol-4-yl)-1-methylimidazolidine-2,4-dione] |  |
|  | 0.043 µM | Cc1noc(C)c1Cn1cc(N2C(=O)CN(Cc3ccc(O)cc3)C2=O)cn1 [Example 10-12, 3-(1-((3,5-dimethylisoxazol-4-yl)methyl)-1H-pyrazol-4-yl)-1-(4-hydroxybenzyl)imidazolidine-2,4-dione] | IC50 [3]: 0.06 µM |
| 0.08 µM |  | COc1ccc(CN2C(=O)N(c3cnn(Cc4c(C)noc4C)c3)C(=O)C2(C)C)cc1OC [Example 12-30, 1-(3,4-dimethoxybenzyl)-3-(1-((3,5-dimethylisoxazol-4-yl)methyl)-1H-pyrazol-4-yl)-5,5-dimethylimidazolidine-2,4-dione] |  |
|  |  | COC(=O)c1ccc(CN2C(=O)N(c3cnn(Cc4c(C)noc4C)c3)C(=O)C2(C)C)cc1 [Example 12-57, methyl 4-((3-(1-((3,5-dimethylisoxazol-4-yl)methyl)-1H-pyrazol-4-yl)-5,5-dimethyl-2,4-dioxoimidazolidin-1-yl)methyl)benzoate] | IC50 [4]: 0.23 µM |
|  |  | Cc1nc2ccc(C(=O)Nc3cnn(Cc4c(C)noc4C)c3)cc2o1 [Example 4-83, N-(1-((3,5-dimethylisoxazol-4-yl)methyl)-1H-pyrazol-4-yl)-2-methylbenzo[d]oxazole-6-carboxamide] | IC50 (Table A, read-out: hT2R8 IC50): 0.7 µM |
|  |  | CCc1nc2cc(C(=O)Nc3cnn(Cc4c(C)noc4C)c3)ccc2o1 [Example 4-81, N-(1-((3,5-dimethylisoxazol-4-yl)methyl)-1H-pyrazol-4-yl)-2-ethylbenzo[d]oxazole-5-carboxamide] | IC50 (Table A, read-out: hT2R8 IC50): 0.8 µM |
|  | 0.048 µM | Cc1noc(C)c1Cn1cc(N2C(=O)CN(Cc3ccc(C#N)cc3)C2=O)cn1 [Example 10-32, 4-((3-(1-((3,5-dimethylisoxazol-4-yl)methyl)-1H-pyrazol-4-yl)-2,4-dioxoimidazolidin-1-yl)methyl)benzonitrile] | IC50 [3]: 0.05 µM |
| 1.3 µM | 1.33 µM | Cc1noc(C)c1Cn1cc(N2C(=O)NC(CC(=O)NCc3ccccc3)C2=O)cn1 (stereo not shown) [Example 10-49, N-benzyl-2-(1-(1-((3,5-dimethylisoxazol-4-yl)methyl)-1H-pyrazol-4-yl)-2,5-dioxoimidazolidin-4-yl)acetamide] |  |
|  | 0.131 µM | COCCOc1ccccc1CN1CC(=O)N(c2cnn(Cc3c(C)noc3C)c2)C1=O [Example 10-16, 3-(1-((3,5-dimethylisoxazol-4-yl)methyl)-1H-pyrazol-4-yl)-1-(2-(2-methoxyethoxy)benzyl)imidazolidine-2,4-dione] | IC50 [3]: 0.1 µM |
|  |  | COc1ccccc1CC(=O)Nc1cnn(Cc2c(C)noc2C)c1 [Example 4-35, N-(1-((3,5-dimethylisoxazol-4-yl)methyl)-1H-pyrazol-4-yl)-2-(2-methoxyphenyl)acetamide] | IC50 (Table A, read-out: hT2R8 IC50): 1.16 µM |
|  |  | Cc1noc(C)c1Cn1cc(N2C(=O)N(Cc3cccc(C(=O)O)c3)C(C)(C)C2=O)cn1 [Example 12-73, 3-((3-(1-((3,5-dimethylisoxazol-4-yl)methyl)-1H-pyrazol-4-yl)-5,5-dimethyl-2,4-dioxoimidazolidin-1-yl)methyl)benzoic acid] | IC50 [4]: 0.46 µM |
|  |  | Cc1noc(C)c1Cn1cc(N2C(=O)N(Cc3cccc(C(F)(F)F)c3)C(C)(C)C2=O)cn1 [Example 12-84, 3-(1-((3,5-dimethylisoxazol-4-yl)methyl)-1H-pyrazol-4-yl)-5,5-dimethyl-1-(3-(trifluoromethyl)benzyl)imidazolidine-2,4-dione] | IC50 [4]: 1.54 µM |
|  |  | Cc1noc(C)c1Cn1cc(NC(=O)c2cc3c(cc2Br)OCCO3)cn1 [Example 4-89, 7-bromo-N-(1-((3,5-dimethylisoxazol-4-yl)methyl)-1H-pyrazol-4-yl)-2,3-dihydrobenzo[b][1,4]dioxine-6-carboxamide] | IC50 (Table A, read-out: hT2R8 IC50): 0.3 µM |
|  |  | Cc1ccccc1NC(=S)Nc1cnn(Cc2c(C)noc2C)c1 [Example 4-108, 1-(1-((3,5-dimethylisoxazol-4-yl)methyl)-1H-pyrazol-4-yl)-3-o-tolylthiourea] | IC50 (Table A, read-out: hT2R8 IC50): 3.01 µM |

| IC50 [1] | IC50 [2] | SMILES | also measured |
| --- | --- | --- | --- |
| 0.33 µM | 0.327 µM | Cc1noc(C)c1Cn1cc(N2C(=O)NC(Cc3ccc(O)cc3)C2=O)cn1 (stereo not shown) [Example 10-59, 3-(1-((3,5-dimethylisoxazol-4-yl)methyl)-1H-pyrazol-4-yl)-5-(4-hydroxybenzyl)imidazolidine-2,4-dione] |  |
|  |  | Cc1noc(C)c1Cn1cc(NC(=S)Nc2cccnc2)cn1 [Example 4-107, 1-(1-((3,5-dimethylisoxazol-4-yl)methyl)-1H-pyrazol-4-yl)-3-(pyridin-3-yl)thiourea] | IC50 (Table A, read-out: hT2R8 IC50): 3 µM |
|  |  | COCCOc1cccc(CN2C(=O)N(c3cnn(Cc4c(C)noc4C)c3)C(=O)C2(C)C)c1 [Example 12-80, 3-(1-((3,5-dimethylisoxazol-4-yl)methyl)-1H-pyrazol-4-yl)-1-(3-(2-methoxyethoxy)benzyl)-5,5-dimethylimidazolidine-2,4-dione] | IC50 [4]: 0.71 µM |
| 0.1 µM |  | Cc1ccccc1CN1C(=O)N(c2cnn(Cc3c(C)noc3C)c2)C(=O)C1(C)C [Example 12-22, 3-(1-((3,5-dimethylisoxazol-4-yl)methyl)-1H-pyrazol-4-yl)-5,5-dimethyl-1-(2-methylbenzyl)imidazolidine-2,4-dione] |  |
|  |  | Cc1noc(C)c1Cn1cc(NC(=O)CCCc2ccccc2)cn1 [Example 4-56, N-(1-((3,5-dimethylisoxazol-4-yl)methyl)-1H-pyrazol-4-yl)-4-phenylbutanamide] | IC50 (Table A, read-out: hT2R8 IC50): 0.83 µM |
|  |  | COc1cc(CC(=O)Nc2cnn(Cc3c(C)noc3C)c2)cc(OC)c1 [Example 4-32, 2-(3,5-dimethoxyphenyl)-N-(1-((3,5-dimethylisoxazol-4-yl)methyl)-1H-pyrazol-4-yl)acetamide] | IC50 (Table A, read-out: hT2R8 IC50): 0.96 µM |
|  |  | COc1cccc(CN2C(=O)N(c3cnn(Cc4c(C)noc4C)c3)C(=O)C2(C)C)n1 [Example 12-40, 3-(1-((3,5-dimethylisoxazol-4-yl)methyl)-1H-pyrazol-4-yl)-1-((6-methoxypyridin-2-yl)methyl)-5,5-dimethylimidazolidine-2,4-dione] | IC50 [4]: 0.08 µM |
| 1.14 µM | 1.56 µM | Cc1noc(C)c1Cn1cc(-n2c(=O)[nH]c(=O)n(Cc3ccccc3)c2=O)cn1 [Example 9-9, 1-benzyl-3-(1-((3,5-dimethylisoxazol-4-yl)methyl)-1H-pyrazol-4-yl)-1,3,5-triazinane-2,4,6-trione] |  |
| > 30 µM |  | Cc1noc(C)c1Cn1cc(NCc2ccccc2C#N)cn1 [Example 9-2, 2-((1-((3,5-dimethylisoxazol-4-yl)methyl)-1H-pyrazol-4-ylamino)methyl)benzonitrile] |  |
| 11 µM |  | Cc1noc(C)c1Cn1cc(N2Cc3ccccc3C2=O)cn1 [Example 9-3, 2-(1-((3,5-dimethylisoxazol-4-yl)methyl)-1H-pyrazol-4-yl) isoindolin-1-One] |  |
|  | 0.053 µM | Cc1noc(C)c1Cn1cc(N2C(=O)CN(Cc3ccc4c(c3)OCO4)C2=O)cn1 [Example 10-36, 1-(benzo[d][1,3]dioxol-5-ylmethyl)-3-(1-((3,5-dimethylisoxazol-4-yl)methyl)-1H-pyrazol-4-yl)imidazolidine-2,4-dione] | IC50 [3]: 0.07 µM |
| 0.08 µM |  | Cc1noc(C)c1CN1C(=O)N(c2cnn(Cc3c(C)noc3C)c2)C(=O)C1(C)C [Example 12-21, 1-((3,5-dimethylisoxazol-4-yl)methyl)-3-(1-((3,5-dimethylisoxazol-4-yl)methyl)-1H-pyrazol-4-yl)-5,5-dimethylimidazolidine-2,4-dione] |  |
| 3.03 µM | 6.15 µM | Cc1noc(C)c1Cn1cc(-n2c(=O)[nH]c(=O)n(CCc3ccccc3)c2=O)cn1 [Example 9-8, 1-(1-((3,5-dimethylisoxazol-4-yl)methyl)-1H-pyrazol-4-yl)-3-phenethyl-1,3,5-triazinane-2,4,6-trione] |  |
|  | 0.322 µM | Cc1noc(C)c1Cn1cc(N2C(=O)CN(Cc3cccc(CO)c3)C2=O)cn1 [Example 10-33, 3-(1-((3,5-dimethylisoxazol-4-yl)methyl)-1H-pyrazol-4-yl)-1-(3-(hydroxymethyl)benzyl)imidazolidine-2,4-dione] | IC50 [3]: 0.3 µM |
| 0.71 µM | 1.25 µM | Cc1noc(C)c1Cn1cc(N2CCN(Cc3ccccc3)C2=O)cn1 [Example 10-88, 1-benzyl-3-(1-((3,5-dimethylisoxazol-4-yl)methyl)-1H-pyrazol-4-yl)imidazolidin-2-One] |  |
|  |  | Cc1noc(C)c1Cn1cc(NC(=O)c2cccc(S(C)(=O)=O)c2)cn1 [Example 4-26, N-(1-((3,5-dimethylisoxazol-4-yl)methyl)-1H-pyrazol-4-yl)-3-(methylsulfonyl)benzamide] | IC50 (Table A, read-out: hT2R8 IC50): 0.72 µM |
|  | 1.22 µM | Cc1noc(C)c1Cn1cc(N2C(=O)CN(Cc3cccc(CN(C)C)c3)C2=O)cn1 [Example 10-37, 1-(3-((dimethylamino)methyl)benzyl)-3-(1-((3,5-dimethylisoxazol-4-yl)methyl)-1H-pyrazol-4-yl)imidazolidine-2,4-dione] | IC50 [3]: 1.2 µM |
